Patent US8546386B2, “Corrosion and microbial control in hydrocarbonaceous compositions” (Dow Global Technologies LLC, priority 2008, dated 2013)

What was measured:
Type in all cases: cell-based
[1] = test system: Hormoconis resinae ATCC#20495; assay: Microbial testing in biodiesel fuel, plate count; settings: for H. resinae organism count: Biocide 0 ppm; for Mold (H. resinae) count: no biocide
[2] = test system: Yarrowia tropicalis ATCC#48138; assay: Microbial testing in diesel fuel, plate count
[3] = test system: Yarrowia tropicalis ATCC#48138; assay: Microbial testing in biodiesel fuel, plate count; settings: Biocide 0 ppm
[4] = test system: Pseudomonas aeruginosa ATCC#33988; assay: Microbial testing in diesel fuel, plate count
[5] = test system: Pseudomonas aeruginosa ATCC#33988; assay: Microbial testing in biodiesel fuel, plate count; settings: for Ps. aeruginosa organism count: Biocide 0 ppm; for Bacteria (Ps. aeruginosa) count: no biocide
[6] = test system: Hormoconis resinae ATCC#20495; assay: Microbial testing in diesel fuel, plate count
[7] = test system: mixed inoculum (Ps. aeruginosa, Y. tropicalis, H. resinae); assay: Microbial resistance of biodiesel fuel, overall statements; settings: absence of biocide
[8] = amino alcohol 1500 ppm + FS 135 ppm, Day 0
[9] = amino alcohol 1500 ppm + FS 135 ppm, Wk 1
[10] = amino alcohol 1500 ppm + FS 135 ppm, Wk 2
[11] = amino alcohol 1500 ppm + FS 135 ppm, Wk 3
[12] = amino alcohol 1500 ppm + FS 135 ppm, Wk 4
[13] = amino alcohol 1500 ppm + FS 1000 ppm, Day 0
[14] = amino alcohol 1500 ppm + FS 1000 ppm, Wk 1
[15] = amino alcohol 1500 ppm + FS 1000 ppm, Wk 2
[16] = amino alcohol 1500 ppm + FS 1000 ppm, Wk 3
[17] = amino alcohol 1500 ppm + FS 1000 ppm, Wk 4
[18] = amino alcohol 1500 ppm, no biocide, Day 0
[19] = amino alcohol 1500 ppm, no biocide, Wk 1
[20] = amino alcohol 1500 ppm, no biocide, Wk 2
[21] = amino alcohol 1500 ppm, no biocide, Wk 3
[22] = amino alcohol 1500 ppm, no biocide, Wk 4
[23] = amino alcohol 3000 ppm + FS 135 ppm, Day 0
[24] = amino alcohol 3000 ppm + FS 135 ppm, Wk 1
[25] = amino alcohol 3000 ppm + FS 135 ppm, Wk 2
[26] = amino alcohol 3000 ppm + FS 135 ppm, Wk 3
[27] = amino alcohol 3000 ppm + FS 135 ppm, Wk 4
[28] = amino alcohol 3000 ppm + FS 1000 ppm, Day 0
[29] = amino alcohol 3000 ppm + FS 1000 ppm, Wk 1
[30] = amino alcohol 3000 ppm + FS 1000 ppm, Wk 2
[31] = amino alcohol 3000 ppm + FS 1000 ppm, Wk 3
[32] = amino alcohol 3000 ppm + FS 1000 ppm, Wk 4
[33] = amino alcohol 3000 ppm, no biocide, Day 0
[34] = amino alcohol 3000 ppm, no biocide, Wk 1
[35] = amino alcohol 3000 ppm, no biocide, Wk 2
[36] = amino alcohol 3000 ppm, no biocide, Wk 3
[37] = amino alcohol 3000 ppm, no biocide, Wk 4

## NC1(CO)CCCCC1 [ACyHM, 1-aminocyclohexylmethanol]
[1]; aminoalcohol 1500 ppm, Week 1
  H. resinae organism count: <1.0E2
[1]; aminoalcohol 1500 ppm, Week 2
  H. resinae organism count: <1.0E2
[1]; aminoalcohol 1500 ppm, Week 3
  H. resinae organism count: <1.0E2
[1]; aminoalcohol 1500 ppm, Week 4
  H. resinae organism count: <1.0E2
[1]; aminoalcohol 3000 ppm, Week 1
  H. resinae organism count: <1.0E2
[1]; aminoalcohol 3000 ppm, Week 2
  H. resinae organism count: <1.0E2
[1]; aminoalcohol 3000 ppm, Week 3
  H. resinae organism count: <1.0E2
[1]; aminoalcohol 3000 ppm, Week 4
  H. resinae organism count: <1.0E2
[2]; [8]
  Y. tropicalis organism count: 2.8E5
[2]; [9]
  Y. tropicalis organism count: 7.8E4
[2]; [10]
  Y. tropicalis organism count: 5.0E3
[2]; [11]
  Y. tropicalis organism count: 6.7E2
[2]; [12]
  Y. tropicalis organism count: 1.8E2
[2]; [13]
  Y. tropicalis organism count: 2.8E5
[2]; [14]
  Y. tropicalis organism count: 1.6E4
[2]; [15]
  Y. tropicalis organism count: <10
[2]; [16]
  Y. tropicalis organism count: <10
[2]; [17]
  Y. tropicalis organism count: <10
[2]; [18]
  Y. tropicalis organism count: 2.8E5
[2]; [19]
  Y. tropicalis organism count: 4.5E5
[2]; [20]
  Y. tropicalis organism count: 1.3E5
[2]; [21]
  Y. tropicalis organism count: 7.6E4
[2]; [22]
  Y. tropicalis organism count: 5.3E4
[2]; [23]
  Y. tropicalis organism count: 2.8E5
[2]; [24]
  Y. tropicalis organism count: 1.3E2
[2]; [25]
  Y. tropicalis organism count: <10
[2]; [26]
  Y. tropicalis organism count: <10
[2]; [27]
  Y. tropicalis organism count: <10
[2]; [28]
  Y. tropicalis organism count: 2.8E5
[2]; [29]
  Y. tropicalis organism count: <10
[2]; [30]
  Y. tropicalis organism count: <10
[2]; [31]
  Y. tropicalis organism count: <10
[2]; [32]
  Y. tropicalis organism count: <10
[2]; [33]
  Y. tropicalis organism count: 2.8E5
[2]; [34]
  Y. tropicalis organism count: 9.3E4
[2]; [35]
  Y. tropicalis organism count: 4.0E4
[2]; [36]
  Y. tropicalis organism count: 1.6E4
[2]; [37]
  Y. tropicalis organism count: 2.7E4
[3]; aminoalcohol 1500 ppm, Week 1
  Y. tropicalis organism count: <1.0E2
[3]; aminoalcohol 1500 ppm, Week 2
  Y. tropicalis organism count: <1.0E2
[3]; aminoalcohol 1500 ppm, Week 3
  Y. tropicalis organism count: <1.0E2
[3]; aminoalcohol 1500 ppm, Week 4
  Y. tropicalis organism count: <1.0E2
[3]; aminoalcohol 3000 ppm, Week 1
  Y. tropicalis organism count: <1.0E2
[3]; aminoalcohol 3000 ppm, Week 2
  Y. tropicalis organism count: <1.0E2
[3]; aminoalcohol 3000 ppm, Week 3
  Y. tropicalis organism count: <1.0E2
[3]; aminoalcohol 3000 ppm, Week 4
  Y. tropicalis organism count: <1.0E2
[4]; [8]
  Ps. aeruginosa organism count: 3.7E6
[4]; [9]
  Ps. aeruginosa organism count: 9.0E5
[4]; [10]
  Ps. aeruginosa organism count: 4.3E4
[4]; [11]
  Ps. aeruginosa organism count: 1.1E2
[4]; [12]
  Ps. aeruginosa organism count: 2.3E2
[4]; [13]
  Ps. aeruginosa organism count: 3.7E6
[4]; [14]
  Ps. aeruginosa organism count: 7.8E3
[4]; [15]
  Ps. aeruginosa organism count: <10
[4]; [16]
  Ps. aeruginosa organism count: <10
[4]; [17]
  Ps. aeruginosa organism count: <10
[4]; [18]
  Ps. aeruginosa organism count: 3.7E6
[4]; [19]
  Ps. aeruginosa organism count: 5.8E6
[4]; [20]
  Ps. aeruginosa organism count: 6.3E5
[4]; [21]
  Ps. aeruginosa organism count: 4.4E5
[4]; [22]
  Ps. aeruginosa organism count: 8.7E5
[4]; [23]
  Ps. aeruginosa organism count: 3.7E6
[4]; [24]
  Ps. aeruginosa organism count: 8.6E2
[4]; [25]
  Ps. aeruginosa organism count: 7.0E1
[4]; [26]
  Ps. aeruginosa organism count: <10
[4]; [27]
  Ps. aeruginosa organism count: 9.0E1
[4]; [28]
  Ps. aeruginosa organism count: 3.7E6
[4]; [29]
  Ps. aeruginosa organism count: <10
[4]; [30]
  Ps. aeruginosa organism count: <10
[4]; [31]
  Ps. aeruginosa organism count: <10
[4]; [32]
  Ps. aeruginosa organism count: <10
[4]; [33]
  Ps. aeruginosa organism count: 3.7E6
[4]; [34]
  Ps. aeruginosa organism count: 2.0E6
[4]; [35]
  Ps. aeruginosa organism count: 1.4E5
[4]; [36]
  Ps. aeruginosa organism count: 7.7E4
[4]; [37]
  Ps. aeruginosa organism count: 9.0E4
[5]; aminoalcohol 1500 ppm, Week 1
  Ps. aeruginosa organism count: <1.0E2
[5]; aminoalcohol 1500 ppm, Week 2
  Ps. aeruginosa organism count: <1.0E2
[5]; aminoalcohol 1500 ppm, Week 3
  Ps. aeruginosa organism count: <1.0E2
[5]; aminoalcohol 1500 ppm, Week 4
  Ps. aeruginosa organism count: <1.0E2
[5]; aminoalcohol 3000 ppm, Week 1
  Ps. aeruginosa organism count: <1.0E2
[5]; aminoalcohol 3000 ppm, Week 2
  Ps. aeruginosa organism count: <1.0E2
[5]; aminoalcohol 3000 ppm, Week 3
  Ps. aeruginosa organism count: <1.0E2
[5]; aminoalcohol 3000 ppm, Week 4
  Ps. aeruginosa organism count: <1.0E2
[6]; [8]
  H. resinae organism count: 5.3E5
[6]; [9]
  H. resinae organism count: 2.5E5
[6]; [10]
  H. resinae organism count: 2.0E3
[6]; [11]
  H. resinae organism count: 4.3E2
[6]; [12]
  H. resinae organism count: 7.0E2
[6]; [13]
  H. resinae organism count: 5.3E5
[6]; [14]
  H. resinae organism count: 1.1E4
[6]; [15]
  H. resinae organism count: <10
[6]; [16]
  H. resinae organism count: <10
[6]; [17]
  H. resinae organism count: 8.0E1
[6]; [18]
  H. resinae organism count: 5.3E5
[6]; [19]
  H. resinae organism count: 5.0E5
[6]; [20]
  H. resinae organism count: 1.3E5
[6]; [21]
  H. resinae organism count: 1.2E5
[6]; [22]
  H. resinae organism count: 2.7E5
[6]; [23]
  H. resinae organism count: 5.3E5
[6]; [24]
  H. resinae organism count: 2.0E3
[6]; [25]
  H. resinae organism count: 2.7E2
[6]; [26]
  H. resinae organism count: <10
[6]; [27]
  H. resinae organism count: 1.6E2
[6]; [28]
  H. resinae organism count: 5.3E5
[6]; [29]
  H. resinae organism count: 4.3E2
[6]; [30]
  H. resinae organism count: <10
[6]; [31]
  H. resinae organism count: 5.0E1
[6]; [32]
  H. resinae organism count: <10
[6]; [33]
  H. resinae organism count: 5.3E5
[6]; [34]
  H. resinae organism count: 9.4E4
[6]; [35]
  H. resinae organism count: 4.6E4
[6]; [36]
  H. resinae organism count: 6.6E4
[6]; [37]
  H. resinae organism count: 4.8E4

## CCCCCCCC/C=C\CCCCCCCC(=O)[O-].[K+] [KOH/Oleic, potassium oleate]
[7]
  effect on microbial resistance of biodiesel: no effect

## CCCCCCCC/C=C\CCCCCCCC(=O)O [Oleic Acid, oleic acid]
[7]
  effect on microbial resistance of biodiesel: no effect
[1]; additive 500 ppm, Week 1
  Mold (H. resinae) count: 1.70E+05 Mold/ml
[1]; additive 500 ppm, Week 2
  Mold (H. resinae) count: 6.00E+05 Mold/ml
[1]; additive 500 ppm, Week 3
  Mold (H. resinae) count: 8.20E+05 Mold/ml
[1]; additive 500 ppm, Week 4
  Mold (H. resinae) count: 7.80E+03 Mold/ml
[1]; additive 1500 ppm, Week 1
  Mold (H. resinae) count: 6.40E+04 Mold/ml
[1]; additive 1500 ppm, Week 2
  Mold (H. resinae) count: 7.70E+05 Mold/ml
[1]; additive 1500 ppm, Week 3
  Mold (H. resinae) count: 6.00E+05 Mold/ml
[1]; additive 1500 ppm, Week 4
  Mold (H. resinae) count: 9.80E+03 Mold/ml
[5]; additive 500 ppm, Week 1
  Bacteria (Ps. aeruginosa) count: 7.80E+05 Bact/ml
[5]; additive 500 ppm, Week 2
  Bacteria (Ps. aeruginosa) count: 8.80E+05 Bact/ml
[5]; additive 500 ppm, Week 3
  Bacteria (Ps. aeruginosa) count: 7.40E+05 Bact/ml
[5]; additive 500 ppm, Week 4
  Bacteria (Ps. aeruginosa) count: 8.00E+05 Bact/ml
[5]; additive 1500 ppm, Week 1
  Bacteria (Ps. aeruginosa) count: 5.00E+04 Bact/ml
[5]; additive 1500 ppm, Week 2
  Bacteria (Ps. aeruginosa) count: 2.00E+05 Bact/ml
[5]; additive 1500 ppm, Week 3
  Bacteria (Ps. aeruginosa) count: 1.30E+05 Bact/ml
[5]; additive 1500 ppm, Week 4
  Bacteria (Ps. aeruginosa) count: 3.20E+05 Bact/ml
